# Test results taken from patent publication US20070112068A1, “Nitrile compound and its use in pest control” (priority 2003, published 2007).
# Legend:
# Format in all cases: in vivo
# Formica fusca japonica [1] = test: Experimental Example 20: poison bait, Formica fusca japonica; conditions: poison bait: 1 ml of 0.1% by weight acetone solution per 1 g unrefined sugar; 0.5 g bait; after 48 hours
# Procedure: 1 ml of a 0.1% by weight solution of the present compound (31) in acetone was added dropwise to 1 g of a commercially available powdery unrefined sugar, mixed thoroughly and then air-dried to obtain a poison bait. A cotton ball impregnated with water and 0.5 g of the poison bait on an aluminum dish were placed in a plastic cup (860 mL) containing 10 imagoes of Formica fusca japonica. After 48 hours, the number of surviving Formica fusca japonica was examined and the death rate of the pest was calculated.
# Coptotermes formosanus = test: Experimental Example 12: topical application, Coptotermes formosanus; conditions: 0.2 μl of 0.005% (w/v) solution onto notum of thorax of ergates; after one day
# Procedure: The present compound (31) was dissolved in a 0.05% (w/v) solution of Sudan red 7B in acetone so that the present compound concentration was 0.005% (w/v) to prepare an experimental pesticidal solution. Onto the notum of the thorax of ergates of Coptotermes formosanus, 0.2 μl of this experimental solution was added dropwise. After one day from treatment, the number of surviving pests was examined and the death rate of the pest was calculated.
# Clogmia albipunctata = test: Experimental Example 9: treated filter paper suspended in glass chamber, Clogmia albipunctata; conditions: 2.5 ml of 2% (w/v) acetone solution on filter paper; 70 cm cube chamber; 2 hours exposure, 24 hours later
# Procedure: (§1) A 2% (w/v) solution of the present compound (31) in acetone was prepared. Onto a filter paper with 10 cm×12.5 cm, 2.5 ml of the solution was added dropwise uniformly and then air-dried. This filter paper was suspended from the center of the ceiling of a glass chamber with 70 cm (width)×70 cm (depth)×70 cm (height) and therein 20 imagoes of Clogmia albipunctata were released. After 2 hours, all test pests were collected, put into a plastic cup together with absorbent cotton impregnated with 5% sugar water, and then left at 25° C. After 24 hours, the number of surviving Clogmia albipunctata was examined and the death rate was calculated (2 repetitions).
# Culex pipiens pallens [2] = test: Experimental Example 10: treated filter paper in Peet-Grady chamber, Culex pipiens pallens; conditions: 5 ml of 1% (w/v) acetone solution on filter paper; 1.8 m Peet-Grady chamber; female imagoes; 1 hour exposure, 24 hours later
# Procedure: A 1% (w/v) solution of the present compound (31) in acetone was prepared. Onto a filter paper with 10 cm×25 cm, 5 ml of the solution was added dropwise uniformly and then air-dried. This filter paper was suspended from the center of the ceiling center of a Peet-Grady chamber with 1.8 m (width)×1.8 m (depth)×1.8 m (height) and therein about 50 female imagoes of Culex pipiens pallens were released. After 1 hour, all test pests were collected, put into a plastic cup together with absorbent cotton impregnated with 5% sugar water, and then left at 25° C. After 24 hours, the number of surviving Culex pipiens pallens was examined and the death rate was calculated.
# Megaselia spiracularis = test: Experimental Example 8: treated filter paper suspended in glass chamber, Megaselia spiracularis; conditions: 2.5 ml of 2% (w/v) acetone solution on filter paper; 70 cm cube chamber; 2 hours exposure, 24 hours later
# Procedure: as §1, with “Megaselia spiracularis” for “Clogmia albipunctata”, “in” for “into”, “calculated.” for “calculated (2 repetitions).”
# Formica fusca japonica [3] = test: Experimental Example 23: treated filter paper on cup lid, Formica fusca japonica; conditions: 0.1 ml of 5% (w/v) acetone solution on filter paper on lid; after 7 days
# Procedure: A 5% (w/v) solution of the present compound (31) in acetone is prepared. 0.1 ml of the solution is added dropwise to a filter paper with 2 cm×2 cm and then air-dried. 10 imagoes of Formica fusca japonica are released in a plastic cup having a diameter of 12.5 cm and a height of 8 cm. After feed and water are placed therein, the cup is closed with a lid. The aforementioned pesticide-treated filter paper is attached to the inner surface of the lid. In addition, the inside wall of the cup is coated with talc for preventing the climbing of ants. This cup is kept at 25° C.
# Culex pipiens pallens [4] = test: Experimental Example 26: liquid-absorbing wick-type heat-vaporizing product, Culex pipiens pallens; conditions: liquid-absorbing wick-type product (Formulation Example 19); 20 minutes exposure, after 24 hours
# Source text: A part of a liquid-absorbing wick-type heat-vaporizing pesticidal product of the present compound (31) prepared according to Formulation Example 19 is set on a heater for a liquid absorbing wick-type heat-vaporizing pesticide, and then placed on the center of the floor of a chamber having 70 cm (width)×70 cm (depth)×70 cm (height). After the part of a liquid-absorbing wick-type heat-vaporizing pesticidal product is initiated to be heated with the heater, about 20 female imagoes of Culex pipiens pallens are released in the chamber. After 20 minutes, all test pests are collected, placed in a plastic cup together with absorbent cotton impregnated with 5% sugar water, and left at 25° C.
# Periplaneta fuliginosa = test: Experimental Example 16: treated filter paper in paper box, Periplaneta fuliginosa; conditions: 0.1 ml of 5% (w/v) acetone solution on filter paper in paper box; after 7 days
# Procedure: 5% (w/v) solutions of the present compounds (23), (24) and (31) in acetone were prepared. 0.1 ml of the solution was added dropwise onto a filter paper with 2 cm×2 cm and then air-dried. This filter paper was attached to the center of the inside bottom of a paper box having 10 cm (width)×2 cm (height)×7 cm (depth) with a two-sided tape. One hole of 2 mm in width and 2 cm in height was made through one side of this box. This box was placed in a plastic vat with 25 cm×20 cm×8 cm in height and therein 3 females and 3 males of Periplaneta fuliginosa were released. The inside wall of the plastic vat used in this experiment was coated with talc for preventing the escape of cockroaches. The plastic vat contained feed and water and left at 25° C. After 7 days, Periplaneta fuliginosa was observed and the death rate of the pest was calculated. This experiment was repeated two times.
# Blattella germanica = test: Experimental Example 18: smoking preparation in Peet-Grady chamber, Blattella germanica; conditions: smoking preparation (Formulation Example 16); 2 hours exposure, after 72 hours
# Procedure: Plastic cups (diameter: 12.5 cm, height: 8 cm) containing 10 (5 males and 5 females) imagoes of Blattella germanica were placed at the two corners of a Peet-Grady chamber with 1.8 m (width)×1.8 m (depth)×1.8 m (height). A plastic container containing water was placed at the center of the bottom of the Peet-Grady chamber and a smoking preparation of the present compound (31) prepared according to Formulation Example 16 was placed in this plastic cup. After 2 hours, Blattella germanica was collected, transferred to a 200 mL plastic cup, and left together with feed and water at 25° C. After 72 hours, the number of surviving Blattella germanica was examined and the death rate of the pest was calculated.
smiles,measurement,setting,value
N#CC(C#N)(CCC(F)(F)F)CC(F)(F)C(F)(F)C(F)(F)C(F)F [(31)],death rate of Formica fusca japonica,Formica fusca japonica [1],100%
same,death rate of the pest,Coptotermes formosanus,100%
same,death rate of the pest,Clogmia albipunctata,83%
same,death rate of the pest,Culex pipiens pallens [2],86%
same,death rate of the pest,Megaselia spiracularis,100%
same,pesticidal effect,Formica fusca japonica [3],pesticidal effect on Formica fusca japonica is confirmed
same,pesticidal effect,Culex pipiens pallens [4],pesticidal effect on Culex pipiens pallens is confirmed
same,death rate of the pest,Periplaneta fuliginosa,100%
same,death rate of the pest,Blattella germanica,100%
